Consider 2 compounds from patent US8680070B2, “Medical implants containing adenosine receptor agonists and methods for inhibitiing medical implant loosening” (New York University, priority 2007, dated 2014).

For one experiment, the system named is TRAF6 protein. Kind of experiment: Western blotting of TRAF6 protein in RAW264.7 cells. As to conditions: 1 μg/ml for 4 days, then RANKL 30 ng/ml, β-actin as comparison. Format: cell-based, murine. As for the experimental part: Western blotting. Osteoclast precursors were preincubated with or without CGS21680 (1 μg/ml) or ZM241385 (1 μg/ml) for 4 days and then stimulated with RANKL (30 ng/ml) for the indicated period. For isolation of total proteins, cells were washed twice with PBS and lysed in RIPA buffer. Proteins were estimated and boiled with sample buffer for 5 min and were subjected to electrophoresis on 10% SDS-PAGE. Proteins were transferred onto a nitrocellulose membrane. Membranes were blocked for 2 hours in blocking solution (5% nonfat dry milk in TBS containing 0.1% Tween 20) and exposed to primary Abs overnight at 4° C. After washing, the membranes were incubated for 1 hour at room temperature with secondary Ab, and the proteins were detected using ECL reagents according to the manufacturer's instructions. To reprobe the membranes with other Abs, the membranes were stripped with 100 mM 2-ME, 2% SDS, and 62.5 mM Tris-HCl (pH 6.9) for 20 min at 50° C., followed by immunoblotting as described above.

In a further experiment the test system is RAW264.7 cells. The experiment is described as follows: Osteoclastogenesis: TRAP-positive multinucleated cells from RANKL-stimulated RAW264.7 cells. Format: cell-based, murine. As to conditions: RANKL 30 ng/ml, four days of culture, vs untreated cells, listed as Adenosine A2A receptor antagonist. The protocol:
Osteoclast formation was evaluated by quantification of TRAP-positive MNCs as described previously. TRAP is preferentially expressed at high levels in osteoclasts and is considered, especially in the mouse, to be an osteoclast marker. After incubation, cells on wells were washed in PBS, fixed in 4% paraformaldehyde for 10 min, and stained for acid phosphatase in the presence of 0.3 M sodium tartrate (Sigma-Aldrich). The substrate used was napthol AS-BI phosphate (Sigma-Aldrich). Only those cells that were strongly TRAP-positive (dark red) and have more than 3 nuclei were counted by light microscopy. To evaluate the size of the Osteoclast over time, we counted the number of nuclei per OCL in 50 OCLs for each of the three wells(n=150). The mean number of nuclei per OCL (MNN) and SE were calculated for each time-point, and ANOVA analysis was performed to determine statistically significant differences. RAW264.7 is a macrophage cell line having the capacity to form osteoclast-like cells. Because the RAW264.7 cells provide an excellent in vitro model for dissecting the cellular and molecular regulation of osteoclast differentiation and activation, we studied the effect of adenosine A2A receptors on the osteoclasts generated from the RAW264.7 cells. Cell Culture and Osteoclastogenesis. […]

In the case of `CCNC(=O)[C@H]1O[C@@H](n2cnc3c(N)nc(NCCc4ccc(CCC(=O)O)cc4)nc32)[C@H](O)[C@@H]1O` [A2A receptor agonist, CGS 21680], the TRAF6 levels entry in the experiment with TRAF6 protein was “diminish”.
Take `Nc1nc(NCCc2ccc(O)cc2)nc2nc(-c3ccco3)nn12` [adenosine A2A receptor antagonist, ZM241385]: in the experiment with RAW264.7 cells, the “osteoclast formation (number of multinucleated TRAP+ osteoclasts)” value was “increased number”.
